# Data published in BindingDB's records for doi:10.1016/j.bioorg.2016.01.003 (Panjab University, 2016).
# Columns and labels:
# Test in all cases: Radioligand Binding Assay
# [1] = target: Adenosine receptor A2a (Homo sapiens, UniProt P29274)
# Method: (§1) Dissociation constants at A1, A2A and A3 receptors (Ki-values) were determined in radioligand competition experiments as reported earlier [19,20]. All binding experiments were done in a microplate format utilizing a 96-well microplate filtration system (Millipore Multiscreen MAFC). As radioligands the agonists [3H]CCPA (1 nM) for A1, [3H]NECA (10 nM) for A2A, and [3H]HEMADO (1 nM) for A3 receptors were used. Samples were incubated with 10 µg of membrane protein for 3 h at 25 °C, filtered through the built-in filter at the bottom of the wells and washed three times with […] of ice-cold binding buffer. After addition of 20 µl of scintillator to the dried filter plates samples were counted in a Wallac Micro-Beta counter. Nonspecific binding was determined in the presence of 1 mM theophylline ([3H]CCPA) or […] (N6-phenylisopropyladenosine; [3H]NECA and [3H] HEMADO).
# [2] = target: T1, Adenosine receptor A1 (Homo sapiens, UniProt P30542)
# T1 sequence (P30542 whole entry): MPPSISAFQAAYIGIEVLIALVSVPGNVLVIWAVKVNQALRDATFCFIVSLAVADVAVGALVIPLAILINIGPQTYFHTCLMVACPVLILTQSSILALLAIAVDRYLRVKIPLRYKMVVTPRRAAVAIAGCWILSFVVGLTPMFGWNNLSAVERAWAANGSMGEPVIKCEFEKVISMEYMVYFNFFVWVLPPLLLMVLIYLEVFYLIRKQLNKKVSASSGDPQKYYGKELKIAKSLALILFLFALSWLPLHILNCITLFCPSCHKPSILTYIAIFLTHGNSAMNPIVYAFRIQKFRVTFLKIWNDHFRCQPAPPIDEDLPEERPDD
# Method: as §1
# [3] = target: T2, Adenosine receptor A2b (Homo sapiens, UniProt P29275)
# T2 sequence (P29275 whole entry): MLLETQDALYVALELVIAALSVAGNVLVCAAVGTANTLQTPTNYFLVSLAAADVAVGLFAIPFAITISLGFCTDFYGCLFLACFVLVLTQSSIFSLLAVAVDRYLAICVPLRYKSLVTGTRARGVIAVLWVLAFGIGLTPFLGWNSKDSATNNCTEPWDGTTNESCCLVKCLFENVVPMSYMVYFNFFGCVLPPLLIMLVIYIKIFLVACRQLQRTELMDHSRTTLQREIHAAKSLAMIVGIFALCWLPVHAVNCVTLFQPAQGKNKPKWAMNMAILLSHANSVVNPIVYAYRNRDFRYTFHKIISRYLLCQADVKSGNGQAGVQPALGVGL
# Chain of Adenosine receptor A2a (P29274 whole entry): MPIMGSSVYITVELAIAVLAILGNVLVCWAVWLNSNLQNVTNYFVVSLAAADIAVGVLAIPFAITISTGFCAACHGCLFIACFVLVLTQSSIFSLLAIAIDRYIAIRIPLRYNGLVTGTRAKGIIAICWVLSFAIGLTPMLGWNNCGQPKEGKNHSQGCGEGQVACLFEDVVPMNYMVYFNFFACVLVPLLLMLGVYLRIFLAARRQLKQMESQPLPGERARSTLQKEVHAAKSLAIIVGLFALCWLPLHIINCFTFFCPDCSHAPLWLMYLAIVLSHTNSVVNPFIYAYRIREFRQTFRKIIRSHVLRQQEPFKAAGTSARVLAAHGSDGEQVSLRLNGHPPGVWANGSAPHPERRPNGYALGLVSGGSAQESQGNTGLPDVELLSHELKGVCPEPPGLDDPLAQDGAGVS
SMILES,Ki [1],Ki [2],Ki [3]
"COc1cc(-c2nc3c([nH]2)c(=O)n(C)c(=O)n3C)ccc1OCC(=O)n1ccnc1 [1,3-Dimethyl-8-[{4-(2-(imidazol-1-yl)-2-oxoethoxy)-3-methoxy}-phenyl]xanthine (15h, RB-390)]",7740 nM,> 30000 nM,> 30 µM
"COC(=O)COc1ccc(-c2nc3c([nH]2)c(=O)n(C)c(=O)n3C)cc1OC [1,3-Dimethyl-8-[{4-(2-methoxy-2-oxoethoxy)-3-methoxy}-phenyl]xanthine (15, RB-384)]",4380 nM,> 30000 nM,> 10 µM
"CCN(CC)CCNC(=O)COc1cccc(-c2nc3c([nH]2)c(=O)n(C)c(=O)n3C)c1 [8-[3-{2-(Diethylaminoethylamino)-2-oxoethoxy}-phenyl]-1,3-dimethylxanthine (14b, RB-378)]",179 nM,1220 nM,4.91 µM
"CCN(CC)CCNC(=O)COc1ccc(-c2nc3c([nH]2)c(=O)n(C)c(=O)n3C)cc1 [8-[4-{2-(Diethylaminoethylamino)-2-oxoethoxy}-phenyl]-1,3-dimethylxanthine (13b, RB-421)]",63 nM,298 nM,0.968 µM
"CCN(CC)CCNC(=O)COc1cc(-c2nc3c([nH]2)c(=O)n(C)c(=O)n3C)ccc1OC [8-[{3-(2-(Diethylaminoethylamino)-2-oxoethoxy)-4-methoxy}phenyl]-1,3-dimethylxanthine (16b, RB-411)]",126 nM,1970 nM,8.05 µM
"CCN(CC)CCNC(=O)COc1ccc(-c2nc3c([nH]2)c(=O)n(C)c(=O)n3C)cc1OC [8-[{4-(2-(Diethylaminoethylamino)-2-oxoethoxy)-3-methoxy}-phenyl]-1,3-dimethyl-xanthine (15b, RB-388)]",692 nM,> 10000 nM,> 10 µM
